Read-outs that look alike come from different tables or passages of the source.
Columns and labels:
MDA-MB-436 = assay: Cell survival analysis (CellTiter-Glo, 10 days culture); assay type: cell-based; settings: Homo sapiens, read-out: Cell growth IC50 grade
Experimental: In this experimental example, the cell growth inhibitory effect of compounds according to the present invention and positive control compounds in tumor cell lines was examined.
MDA-MB-436 (ATCC, #HTB-130) cell line was cultured in cell culture medium (Leibovitz's L-15 (GIBCO catalog no. 11415064) + 10 µg/mL insulin (Yeasen catalog no. 40112ES25) + 16 µg/mL glutathione (GIBCO catalog no. 25030-081) + 10% fetal bovine serum (FBS) (Excell Bio catalog no. FSP500)). 3,000 MDA-MB-436 cells were plated per well in a 96-well plate and cultured for 1 day at 37°C in 5% CO2. […] The cells were then cultured in a cell incubator for 10 days, and the cell culture medium containing the compound was replaced on the 5th day of culture. Cell survival rate was analyzed for luminescence using the Promega CellTiter-Glo Luminescent Cell Viability Assay Kit (Promega catalog number G7573), and the luminescence was measured using a PerkinElmer EnVision instrument. The percentage of cell growth inhibition rate was calculated from the measured relative luminescence unit (RLU) as follows. Inhibition rate = 1−((RLU compound−RLU blank)/(RLU control−RLU blank)) × 100 [formula]

USP1 enzyme = USP1 enzyme (Homo sapiens, UniProt O94782); assay: Biochemical analysis of USP1 enzyme activity (ubiquitin-rhodamine 110 deubiquitination, fluorescence); settings: ubiquitin-rhodamine 110 substrate, 10 minutes pre-incubation, 30 minutes reaction at room temperature; read-out: Enzyme activity IC50 grade
USP1 enzyme, sequence (O94782 whole entry): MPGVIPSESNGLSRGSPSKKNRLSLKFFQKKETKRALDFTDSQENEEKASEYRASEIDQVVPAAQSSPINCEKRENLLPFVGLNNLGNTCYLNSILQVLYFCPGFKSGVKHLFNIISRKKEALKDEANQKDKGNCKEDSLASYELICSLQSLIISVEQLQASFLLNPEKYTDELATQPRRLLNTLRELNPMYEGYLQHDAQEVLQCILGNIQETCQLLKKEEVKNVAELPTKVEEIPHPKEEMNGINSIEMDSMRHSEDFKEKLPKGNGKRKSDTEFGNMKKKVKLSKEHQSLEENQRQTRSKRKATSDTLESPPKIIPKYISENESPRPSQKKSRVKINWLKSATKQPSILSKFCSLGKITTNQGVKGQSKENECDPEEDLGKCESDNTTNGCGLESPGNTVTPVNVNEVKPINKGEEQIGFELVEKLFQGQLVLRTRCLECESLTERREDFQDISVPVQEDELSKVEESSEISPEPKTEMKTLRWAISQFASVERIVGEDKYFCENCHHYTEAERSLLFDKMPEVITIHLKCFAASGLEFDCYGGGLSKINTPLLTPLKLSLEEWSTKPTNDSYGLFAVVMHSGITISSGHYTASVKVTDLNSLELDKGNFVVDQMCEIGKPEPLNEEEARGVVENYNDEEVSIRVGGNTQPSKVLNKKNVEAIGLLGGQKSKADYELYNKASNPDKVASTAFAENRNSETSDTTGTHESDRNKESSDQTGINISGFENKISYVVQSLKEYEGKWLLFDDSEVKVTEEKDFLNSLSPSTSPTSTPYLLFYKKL
USP1 enzyme, sequence (Q8TAF3 whole entry partner): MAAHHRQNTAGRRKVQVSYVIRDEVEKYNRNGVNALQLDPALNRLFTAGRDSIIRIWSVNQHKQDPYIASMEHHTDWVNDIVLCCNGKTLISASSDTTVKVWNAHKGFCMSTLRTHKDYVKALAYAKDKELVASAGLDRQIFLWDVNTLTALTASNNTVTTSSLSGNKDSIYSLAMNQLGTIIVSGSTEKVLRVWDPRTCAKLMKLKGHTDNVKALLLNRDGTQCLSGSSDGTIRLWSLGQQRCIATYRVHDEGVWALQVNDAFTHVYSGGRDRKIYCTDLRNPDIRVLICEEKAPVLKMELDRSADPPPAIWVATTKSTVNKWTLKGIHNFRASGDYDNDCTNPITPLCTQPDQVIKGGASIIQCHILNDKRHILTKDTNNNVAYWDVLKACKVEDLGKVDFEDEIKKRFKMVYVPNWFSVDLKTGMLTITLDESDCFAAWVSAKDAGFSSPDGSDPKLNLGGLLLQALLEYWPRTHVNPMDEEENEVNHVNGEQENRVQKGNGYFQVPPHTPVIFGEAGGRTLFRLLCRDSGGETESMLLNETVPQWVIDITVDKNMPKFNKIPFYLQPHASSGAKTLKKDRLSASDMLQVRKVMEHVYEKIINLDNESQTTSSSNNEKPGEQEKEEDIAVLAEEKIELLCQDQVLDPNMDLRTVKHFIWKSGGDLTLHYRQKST
Experimental: In this experimental example, the inhibitory effect of the compounds according to the present invention and the positive control compound on USP1 deubiquitinating activity was tested using a biochemical enzymatic assay. Ubiquitin-rhodamine 110 was used as a substrate for measuring deubiquitinating activity. This substrate compound is a substance in which rhodamine 110 is linked to the glycine residue at the C-terminus of ubiquitin by an amide bond. When this amide bond is cleaved by the deubiquitinating activity, a fluorescent signal is counted.
Subsequently, analytical buffer solution (50 mM hydroxyethylpiperazineethanesulfonic acid (HEPES) containing USP1 enzyme, 100 mM NaCl, 2 mM tris(2-carboxyethyl)phosphine (TCEP), and 100 µg/mL bovine serum albumin (BSA)) were added to each well of the plate and incubated at room temperature for 10 minutes. Subsequently, analytical y buffer solution containing ubiquitin-rhodamine 110 was added to each well and reacted at room temperature for 30 minutes.

[1] = 240 h, MDA-MB-436 cell line, cultured for 10 days, CellTiter-Glo

| SMILES | IC50 (MDA-MB-436; [1]) [nM] | IC50 (USP1 enzyme) [nM] | IC50 (MDA-MB-436; MDA-MB-436, 240 h) [nM] |
| --- | --- | --- | --- |
| COc1ncnc(C2CC2)c1-c1ncc(P(C)(C)=O)c(NCc2ccc(-c3nc(C(F)(F)F)cn3C)cc2)n1 [Example 2, (4'-cyclopropyl-6'-methoxy-4-((4-(1-methyl-4-(trifluoromethyl)-1H-imidazol-2-yl)benzyl)amino)-[2,5'-bipyrimidine]-5-yl)dimethylphosphine oxide] | 100 to 500 | 50 to 100 |  |
| Cc1cnn(C(C)C)c1-c1ncc(P(C)(C)=O)c(NCc2ccc(-c3nc(C(F)(F)F)cn3C)cc2)n1 [Example 3, (2-(1-isopropyl-4-methyl-1H-pyrazole-5-yl)-4-((4-(1-methyl-4-(trifluoromethyl)-1H-imidazol-2-yl)benzyl)amino)pyrimidin-5-yl)dimethylphosphine oxide] | > 500 | > 100 |  |
| CC(C)c1ncccc1-c1ncc(P(C)(C)=O)c(NCc2ccc(-c3nc(C(F)(F)F)cn3C)cc2)n1 [Example 4, (2-(2-isopropylpyridine-3-yl)-4-((4-(1-methyl-4-(trifluoromethyl)-1H-imidazol-2-yl)benzyl)amino)pyrimidin-5-yl)dimethylphosphine oxide] | 100 to 500 | > 100 |  |
| [2H]C([2H])([2H])Oc1ncnc(C2CC2)c1-c1ncc(P(C)(C)=O)c(NCc2ccc(-c3nc(C(F)(F)F)cn3C)cc2)n1 [Example 5, (4'-cyclopropyl-6'-(methoxy-d3)-4-((4-(1-methyl-4-(trifluoromethyl)-1H-imidazol-2-yl)benzyl)amino)-[2,5'-bipyrimidine]-5-yl)dimethylphosphine oxide] | 100 to 500 | 50 to 100 |  |
| Cn1cc(C(F)(F)F)nc1-c1ccc(CNc2nc(-c3cccnc3OC(F)F)ncc2P(C)(C)=O)cc1 [Example 6, (2-(2-(difluoromethoxy)pyridin-3-yl)-4-((4-(1-methyl-4-(trifluoromethyl)-1H-imidazol-2-yl)benzyl)amino)pyrimidin-5-yl)dimethylphosphine oxide] | 100 to 500 | > 100 |  |
| COc1ncnc(C2CC2)c1-c1ncc(P(C)(C)=O)c(NCc2ccc(-c3nc(C(F)(F)F)cn3C)c(F)c2)n1 [Example 7, (4'-cyclopropyl-4-((3-fluoro-4-(1-methyl-4-(trifluoromethyl)-1H-imidazol-2-yl)benzyl)amino)-6'-methoxy-[2,5'-bipyrimidine]-5-yl)dimethylphosphine oxide] | < 100 | 50 to 100 |  |
| COc1ncnc(C2CC2)c1-c1ncc(P(C)(C)=O)c(NCc2ccc(-c3nc(C(F)(F)F)cn3C3CC3)cc2)n1 [Example 8, (4'-cyclopropyl-4-((4-(1-cyclopropyl-4-(trifluoromethyl)-1H-imidazol-2-yl)benzyl)amino)-6'-methoxy-[2,5'-bipyrimidine]-5-yl)dimethylphosphine oxide] | < 100 | < 50 |  |
| COc1ncnc(C2CC2)c1-c1ncc(P(C)(C)=O)c(NCc2ccc(-n3nc(C(F)(F)F)cc3C)cc2)n1 [Example 9, (4'-cyclopropyl-6'-methoxy-4-((4-(5-methyl-3-(trifluoromethyl)-1H-pyrazole-1-yl)benzyl)amino)-[2,5'-bipyrimidine]-5-yl)dimethylphosphine oxide] | < 100 | < 50 |  |
| COc1ncnc(C2CC2)c1-c1ncc(P(C)(C)=O)c(NCC23CCC(c4nc(C(F)(F)F)cn4C)(CC2)CC3)n1 [Example 10, (4'-cyclopropyl-6'-methoxy-4-(((4-(1-methyl-4-(trifluoromethyl)-1H-imidazol-2-yl)bicyclo[2.2.2]octan-1-yl)methyl)amino)-[2,5'-bipyrimidine]-5-yl)dimethylphosphine oxide] | 100 to 500 | 50 to 100 |  |
| COc1ncnc(C2CC2)c1-c1ncc(P(C)(C)=O)c(NCC23C4C5C2C2C3C4C52c2nc(C(F)(F)F)cn2C)n1 [Example 11, (4'-cyclopropyl-6'-methoxy-4-((((1s,2R,3s,4r,5S,6r,7R,8S)-4-(1-methyl-4-(trifluoromethyl)-1H-imidazol-2-yl)cuban-1-yl)methyl)amino)-[2,5'-bipyrimidine]-5-yl)dimethylphosphine oxide] |  | < 50 | < 100 |
| COc1ncnc(C2CC2)c1-c1ncc(P(C)(C)=O)c(NCc2ccc(-c3nc(C(F)(F)F)cn3C(C)C)cc2)n1 [Example 12, (4'-cyclopropyl-4-((4-(1-isopropyl-4-(trifluoromethyl)-1H-imidazol-2-yl)benzyl)amino)-6'-methoxy-[2,5'-bipyrimidine]-5-yl)dimethylphosphine oxide] | 100 to 500 | 50 to 100 |  |
| COc1ncnc(C2CC2)c1-c1ncc(P(C)(C)=O)c(NCc2ccc(-c3nc(C(F)(F)F)cn3C(C)C)c(F)c2)n1 [Example 13, (4'-cyclopropyl-4-((3-fluoro-4-(1-isopropyl-4-(trifluoromethyl)-1H-imidazol-2-yl)benzyl)amino)-6'-methoxy-[2,5'-bipyrimidine]-5-yl)dimethylphosphine oxide] | < 100 | < 50 |  |
| COc1ncnc(C2CC2)c1-c1ncc(P(C)(C)=O)c(NCc2ccc(-n3nc(C(F)(F)F)cc3C)c(F)c2)n1 [Example 14, (4'-cyclopropyl-4-((3-fluoro-4-(5-methyl-3-(trifluoromethyl)-1H-pyrazole-1-yl)benzyl)amino)-6'-methoxy-[2,5'-bipyrimidine]-5-yl)dimethylphosphine oxide] | < 100 | < 50 |  |
| COc1ncnc(C2CC2)c1-c1ncc(P(C)(C)=O)c(NCc2ccc(-n3nc(C(F)(F)F)cc3C(C)C)cc2)n1 [Example 15, (4'-cyclopropyl-4-((4-(5-isopropyl-3-(trifluoromethyl)-1H-pyrazole-1-yl)benzyl)amino)-6'-methoxy-[2,5'-bipyrimidine]-5-yl)dimethylphosphine oxide] | < 100 | < 50 |  |
| COc1ncnc(C2CC2)c1-c1ncc(P(C)(C)=O)c(NCc2ccc(-n3nc(C(F)(F)F)cc3C(C)C)c(F)c2)n1 [Example 16, (4'-cyclopropyl-4-((3-fluoro-4-(5-isopropyl-3-(trifluoromethyl)-1H-pyrazol-1-yl)benzyl)amino)-6'-methoxy-[2,5'-bipyrimidine]-5-yl)dimethylphosphine oxide] | < 100 | < 50 |  |
| COc1ncnc(C2CC2)c1-c1ncc(P(C)(C)=O)c(NCc2ccc(-n3nc(C(F)(F)F)cc3C3CC3)cc2)n1 [Example 17, (4'-cyclopropyl-4-((4-(5-cyclopropyl-3-(trifluoromethyl)-1H-pyrazole-1-yl)benzyl)amino)-6'-methoxy-[2,5'-bipyrimidine]-5-yl)dimethylphosphine oxide] | < 100 | < 50 |  |
| COc1ncnc(C2CC2)c1-c1ncc(P(C)(C)=O)c(NCc2ccc(-n3nc(C(F)(F)F)cc3C3CC3)c(F)c2)n1 [Example 18, (4'-cyclopropyl-4-((4-(5-cyclopropyl-3-(trifluoromethyl)-1H-pyrazole-1-yl)-3-fluorobenzyl)amino)-6'-methoxy[2,5'-bipyrimidine]-5-yl)dimethylphosphine oxide] | < 100 | < 50 |  |
| Cc1cnc(-c2ccccc2C(C)C)nc1NCc1ccc(-n2ccnn2)cc1 [ML323, N-(4-(1H-1,2,3-triazol-1-yl)benzyl)-5-methyl-2-(2-isopropylphenyl)pyrimidin-4-amine, reference compound] | > 500 |  |  |

From patent EP4737452A1, “NOVEL PYRIMIDINE DERIVATIVES” (Aigen Sciences Inc., priority 2023, dated 2025)
